The values that follow come from patent US20140234212A1, “Targeted Buccal Delivery of Agents” (Massachusetts Institute of Technology, priority 2013, published 2014).

One may read the IC50 as the concentration needed to halve the response being measured. A high value points to weaker potency in that assay.

Molecules are shown by their SMILES. Read-outs that look alike come from different tables or passages of the source.

The format of series [1] is in vitro ADME, pig. The conditions noted are these: not told. The procedure: FITC labeled chitosan NPs were used.
b) Ethanol (100% Ethanol diluted with 50% PBS) c) 2-Dimethylaminopropionic acid dodecyl ester (DDAIP) (“DDAIP”) (2 g/100 ml diluted in PBS) d) Ethanol+DDAIP (100% Ethanol diluted with 4 g/100 ml of DDAIP to achieve the same final working concentration of Ethanol and DDAIP as used in (b) and (c) respectively. e) TDCA (100 mM diluted in PBS)
Fresh pig tongue was obtained from the Butcher shop at Cambridge. The middle portion of the tongue was selected for these studies. 5 designated sections were chosen on this portion and 0.75 mL of each of these PEs were applied at each of these sections, followed by the addition of the wafers (25 mg each) with additional 0.75 mL of PEs on top of the wafers. The incubation was done in the dark at RT for 1 hour. The tongue was then washed with water and all the wafers were removed from their designated sections. The respective sections were individually cut and embedded into an OCT for sectioning using a microtome. 50 microns slices were cut from each of these sections and 2 slices were placed on slides. The slides were kept submerged in water for 3 hours to remove any bound OCT as it interferes with the image quality. Following that, each of the slides from different sections were mounted with cover slips using a DAPI containing mounting media and imaged using a fluorescence microscope. Images were taken at 4×, 10× and 20× in both FITC and DAPI channels. In addition, slices of untreated tongue were also cut and imaged to account for inherent fluorescence of the tongue. However, before conducting permeation studies, many experiments were performed to discover the optimal concentrations of PEs that would not result in significant modifications to out current wafer synthesis protocol and allow seamless integration into the wafer.

Series [2] relates to HCPC 1 (hamster cheek pouch carcinoma) cells. Description: MTS cell viability assay. It counts as cell-based. The following applies: HCPC 1 cells, 48 h. The procedure:
A cell viability study of 33% cisplatin-loaded nanoparticles was also conducted using the tetrazolium compound (3-(4,5-dimethylthiazol-2-yl)-5-(3-carboxymethoxy phenyl)-2-(4-sulfophenyl)-2H-tetrazolium inner salt, MTS. When incorporated by the cells, MTS is bioreduced by metabolically active cells. The amount of […] is directly proportional to the number of living cells in culture.
In general terms: Formazan colour is commonly taken as a measure of viable cells.

Series [3] has as its system hamster cheek pouch carcinoma (HCPC1) tumors. Description: Tumor inhibition and weight change in HCPC1 allografted hamsters. It counts as in vivo, Golden Syrian hamsters. The conditions noted are these: 1.15 mg/kg cisplatin equivalent; sponge topically, free cisplatin intraperitoneally. How it is done:
Golden Syrian hamsters, 71-80 g, were anesthetized and prepared for implantation of the tumor cells. Hamster cheek pouch carcinoma (HCPC 1) cells were collected from culture, and 1×10^8 cells suspended in PBS buffer were then injected subcutaneously into the cheek pouch of a hamster. After 7 days when tumors reached around 100 mm^3 in size, hamsters were divided into 4 groups, minimizing weight and tumor size difference. […] Two doses were administrated with 3-day interval. After treatments, the animals were monitored closely, and measurements of the tumor size and body weight for each animal were performed at regular intervals using calipers without knowledge of which injection each animal had received. The tumor volume for each time point was calculated according to the formula, (length)×(width)^2/2, where the long axis is the length, the short axis is the width.

For `C[C@H](CCC(=O)NCCS(=O)(=O)O)[C@H]1CC[C@H]2[C@@H]3CC[C@@H]4C[C@H](O)CC[C@]4(C)[C@H]3C[C@H](O)[C@]12C` [TDCA], the “Permeation Depth” value in series [1] is 100 microns. Take `CCO` [Ethanol]: the “Permeation Depth” value in series [1] (pig, 1 hour) was 140 microns.

Turning to `CCCCCCCCCCCCOC(=O)C(C)N(C)C` (stereo not shown) [DDAIP, 2-Dimethylaminopropionic acid dodecyl ester], the “Permeation Depth” value in series [1] (pig, 1 hour) is reported as 200 microns. In addition, the “depth permeated by the NPs” value in series [1] (pig, 1 hour, 2 g/100 ml) stood at 200 μm. `N.N.[Cl][Pt][Cl]` [free cisplatin, cis-diamminedichloroplatinum(ll)] had a 50% inhibitory concentration (IC50) in series [2] of around 60 nM. In series [3], the tumor inhibition entry is listed as “comparable decrease in tumor size” and the weight change result was “significant weight loss”.
